Laboratory results taken from the kinase profiling compilation of Christmann-Franck et al. (2016).
Several values for one entry are separate records, joined by “and”; a condition that tells them apart may be missing. Equal entries are not always repeated.

Legend:
Assay in all cases: KINOMEscan competition binding
Details in all cases: compound 1.0 µM
AKT2 (human) = AKT2 (human) (UniProt P31751)
BRSK1 (human) = BRSK1 (human) (UniProt Q8TDC3)
CDK13 (human) = CDK13 (human) (UniProt Q14004)
EGFR (human) = EGFR (human) (UniProt P00533)
EGFR (human), sequence (P00533 whole entry, looked up): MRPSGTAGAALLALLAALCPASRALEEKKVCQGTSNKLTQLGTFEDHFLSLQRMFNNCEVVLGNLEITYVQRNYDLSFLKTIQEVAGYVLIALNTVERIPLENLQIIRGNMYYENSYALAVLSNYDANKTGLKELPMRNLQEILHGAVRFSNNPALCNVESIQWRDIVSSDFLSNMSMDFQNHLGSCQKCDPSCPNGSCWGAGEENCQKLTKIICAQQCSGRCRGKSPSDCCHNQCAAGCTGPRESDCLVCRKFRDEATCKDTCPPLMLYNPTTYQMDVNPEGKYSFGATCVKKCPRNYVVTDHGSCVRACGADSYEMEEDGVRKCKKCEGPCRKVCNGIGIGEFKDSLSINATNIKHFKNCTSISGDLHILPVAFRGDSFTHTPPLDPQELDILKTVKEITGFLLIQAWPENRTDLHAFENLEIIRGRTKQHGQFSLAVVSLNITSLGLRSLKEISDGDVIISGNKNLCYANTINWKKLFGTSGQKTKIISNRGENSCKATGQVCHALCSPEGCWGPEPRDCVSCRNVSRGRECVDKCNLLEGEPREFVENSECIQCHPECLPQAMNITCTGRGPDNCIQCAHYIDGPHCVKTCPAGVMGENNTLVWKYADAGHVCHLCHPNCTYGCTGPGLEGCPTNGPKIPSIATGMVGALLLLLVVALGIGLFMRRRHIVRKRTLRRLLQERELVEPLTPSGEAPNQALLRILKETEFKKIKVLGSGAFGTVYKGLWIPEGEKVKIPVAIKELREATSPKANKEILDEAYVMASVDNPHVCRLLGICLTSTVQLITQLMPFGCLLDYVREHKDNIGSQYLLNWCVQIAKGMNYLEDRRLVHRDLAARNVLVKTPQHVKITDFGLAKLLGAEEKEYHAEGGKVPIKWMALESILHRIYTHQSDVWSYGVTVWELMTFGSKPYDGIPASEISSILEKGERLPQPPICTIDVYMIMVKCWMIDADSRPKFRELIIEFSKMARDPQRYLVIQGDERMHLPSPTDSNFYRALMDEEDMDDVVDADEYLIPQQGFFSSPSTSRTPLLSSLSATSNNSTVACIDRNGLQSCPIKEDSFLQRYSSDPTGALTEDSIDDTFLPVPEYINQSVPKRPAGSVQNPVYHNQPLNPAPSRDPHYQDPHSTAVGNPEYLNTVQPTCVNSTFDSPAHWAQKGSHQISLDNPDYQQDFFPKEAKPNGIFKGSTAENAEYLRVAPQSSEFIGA

EPHA1 (human) = EPHA1 (human) (UniProt P21709)
EPHA6 (human) = EPHA6 (human) (UniProt Q9UF33)
EPHB3 (human) = EPHB3 (human) (UniProt P54753)
EPHB6 (human) = EPHB6 (human) (UniProt O15197)
FER (human) = FER (human) (UniProt P16591)
FES (human) = FES (human) (UniProt P07332)
[1] = system: FGFR3 (human), P22607 [G697C]
FLT3 (human) = FLT3 (human) (UniProt P36888)
FLT3 (human), sequence (P36888 whole entry, looked up): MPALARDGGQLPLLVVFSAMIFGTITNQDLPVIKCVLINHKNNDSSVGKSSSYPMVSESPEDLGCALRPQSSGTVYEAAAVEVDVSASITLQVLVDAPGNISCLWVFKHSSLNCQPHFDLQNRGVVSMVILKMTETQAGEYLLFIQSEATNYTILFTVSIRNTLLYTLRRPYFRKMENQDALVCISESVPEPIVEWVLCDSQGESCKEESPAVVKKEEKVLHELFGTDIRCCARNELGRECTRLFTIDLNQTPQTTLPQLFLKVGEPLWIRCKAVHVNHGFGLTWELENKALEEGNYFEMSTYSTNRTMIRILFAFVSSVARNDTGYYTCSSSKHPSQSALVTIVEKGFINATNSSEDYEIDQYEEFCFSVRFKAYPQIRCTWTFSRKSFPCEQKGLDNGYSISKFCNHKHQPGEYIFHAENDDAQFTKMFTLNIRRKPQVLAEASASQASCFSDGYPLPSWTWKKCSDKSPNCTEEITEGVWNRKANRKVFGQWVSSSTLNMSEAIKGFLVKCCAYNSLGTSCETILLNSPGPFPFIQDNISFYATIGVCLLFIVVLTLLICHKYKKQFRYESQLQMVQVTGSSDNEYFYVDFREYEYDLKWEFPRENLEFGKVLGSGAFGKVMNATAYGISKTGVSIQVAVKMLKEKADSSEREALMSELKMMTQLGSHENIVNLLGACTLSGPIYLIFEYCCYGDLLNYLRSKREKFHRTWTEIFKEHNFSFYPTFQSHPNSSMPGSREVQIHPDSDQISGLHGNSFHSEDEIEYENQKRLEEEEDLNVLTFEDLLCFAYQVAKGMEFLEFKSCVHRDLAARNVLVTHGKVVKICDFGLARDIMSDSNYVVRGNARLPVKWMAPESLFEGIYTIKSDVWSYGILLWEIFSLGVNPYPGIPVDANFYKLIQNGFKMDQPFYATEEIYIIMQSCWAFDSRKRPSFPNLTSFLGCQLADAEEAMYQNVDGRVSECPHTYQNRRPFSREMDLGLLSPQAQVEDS

HCK (human) = HCK (human) (UniProt P08631)
HIPK1 (human) = HIPK1 (human) (UniProt Q86Z02)
[2] = system: KIT (human), P10721 [D816H]
[3] = system: KIT (human), P10721 [L576P]
MAP3K2 (human) = MAP3K2 (human) (UniProt Q9Y2U5)
MAP3K5 (human) = MAP3K5 (human) (UniProt Q99683)
MAP4K4 (human) = MAP4K4 (human) (UniProt O95819)
MAPK10 (human) = MAPK10 (human) (UniProt P53779)
MAPK11 (human) = MAPK11 (human) (UniProt Q15759)
MST4 (human) = MST4 (human) (UniProt Q9P289)
NUAK1 (human) = NUAK1 (human) (UniProt O60285)
PHKG2 (human) = PHKG2 (human) (UniProt P15735)
PIK3CA (human) = PIK3CA (human) (UniProt P42336)
PIK3CA (human), sequence (P42336 whole entry, looked up): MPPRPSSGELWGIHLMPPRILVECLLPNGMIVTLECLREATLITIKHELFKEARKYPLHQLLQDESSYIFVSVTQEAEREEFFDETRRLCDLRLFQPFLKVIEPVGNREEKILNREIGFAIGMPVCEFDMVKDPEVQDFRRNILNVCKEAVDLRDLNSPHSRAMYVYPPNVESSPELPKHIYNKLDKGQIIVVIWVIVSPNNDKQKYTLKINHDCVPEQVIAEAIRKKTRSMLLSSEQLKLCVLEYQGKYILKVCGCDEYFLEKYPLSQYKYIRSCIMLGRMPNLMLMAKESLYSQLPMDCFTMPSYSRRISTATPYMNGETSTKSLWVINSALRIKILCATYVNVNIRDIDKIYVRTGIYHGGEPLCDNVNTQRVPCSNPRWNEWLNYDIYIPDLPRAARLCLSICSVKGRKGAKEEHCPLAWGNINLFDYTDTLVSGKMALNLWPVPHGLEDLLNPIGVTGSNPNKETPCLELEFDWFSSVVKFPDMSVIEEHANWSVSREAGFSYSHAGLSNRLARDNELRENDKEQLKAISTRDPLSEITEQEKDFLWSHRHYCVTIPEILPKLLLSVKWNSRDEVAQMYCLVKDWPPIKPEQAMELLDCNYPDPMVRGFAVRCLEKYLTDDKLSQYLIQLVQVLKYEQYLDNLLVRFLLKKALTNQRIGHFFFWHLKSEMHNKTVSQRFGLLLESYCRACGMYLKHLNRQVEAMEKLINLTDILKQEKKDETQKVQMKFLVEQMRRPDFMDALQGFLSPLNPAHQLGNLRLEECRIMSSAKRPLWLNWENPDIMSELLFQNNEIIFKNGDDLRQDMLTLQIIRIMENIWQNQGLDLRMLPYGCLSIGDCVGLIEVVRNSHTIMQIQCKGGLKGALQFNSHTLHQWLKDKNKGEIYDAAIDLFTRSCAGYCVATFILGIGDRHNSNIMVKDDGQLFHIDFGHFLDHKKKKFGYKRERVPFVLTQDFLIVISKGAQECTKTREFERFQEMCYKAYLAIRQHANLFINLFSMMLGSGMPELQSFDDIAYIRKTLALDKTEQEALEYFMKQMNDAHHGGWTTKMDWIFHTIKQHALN

[4] = system: PIK3CA (human), P42336 [C420R]
PIK3CA (human), P42336 [C420R], sequence (P42336 whole entry C420R, looked up): as the sequence (P42336 whole entry, looked up) above, with C420R counted along it

[5] = system: PIK3CA (human), P42336 [H1047Y]
PIK3CA (human), P42336 [H1047Y], sequence (P42336 whole entry H1047Y, looked up): as the sequence (P42336 whole entry, looked up) above, with H1047Y counted along it

[6] = system: PIK3CA (human), P42336 [I800L]
PIK3CA (human), P42336 [I800L], sequence (P42336 whole entry I800L, looked up): as the sequence (P42336 whole entry, looked up) above, with I800L counted along it

PIP4K2C (human) = PIP4K2C (human) (UniProt Q8TBX8)
PKMYT1 (human) = PKMYT1 (human) (UniProt Q99640)
PLK1 (human) = PLK1 (human) (UniProt P53350)
PRKG2 (human) = PRKG2 (human) (UniProt Q13237)
PRKG2 (human), sequence (Q13237 whole entry, looked up): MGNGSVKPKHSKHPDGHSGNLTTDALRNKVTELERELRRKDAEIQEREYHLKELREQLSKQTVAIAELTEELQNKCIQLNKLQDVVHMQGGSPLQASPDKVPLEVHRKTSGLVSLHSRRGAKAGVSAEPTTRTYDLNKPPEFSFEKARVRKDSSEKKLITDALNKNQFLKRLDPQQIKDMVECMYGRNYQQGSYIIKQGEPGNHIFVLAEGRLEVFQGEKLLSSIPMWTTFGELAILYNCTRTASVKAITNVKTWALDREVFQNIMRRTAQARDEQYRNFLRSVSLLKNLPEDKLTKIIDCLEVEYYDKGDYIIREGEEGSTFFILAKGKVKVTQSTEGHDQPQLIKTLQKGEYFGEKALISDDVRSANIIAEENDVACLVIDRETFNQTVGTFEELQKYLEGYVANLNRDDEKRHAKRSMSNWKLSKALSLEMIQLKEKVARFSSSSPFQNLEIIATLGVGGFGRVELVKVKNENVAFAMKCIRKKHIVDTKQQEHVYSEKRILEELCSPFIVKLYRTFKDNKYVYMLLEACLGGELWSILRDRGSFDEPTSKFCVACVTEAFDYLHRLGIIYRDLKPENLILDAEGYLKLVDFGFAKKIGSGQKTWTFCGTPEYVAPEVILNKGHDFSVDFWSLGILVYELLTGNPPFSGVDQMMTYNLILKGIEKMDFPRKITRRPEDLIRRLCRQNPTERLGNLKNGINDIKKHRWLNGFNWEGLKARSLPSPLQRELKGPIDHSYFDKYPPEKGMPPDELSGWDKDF

RIOK1 (human) = RIOK1 (human) (UniProt Q9BRS2)
RIPK2 (human) = RIPK2 (human) (UniProt O43353)
RPS6KA6 KD1 (human) = RPS6KA6 KD1 (human) (UniProt Q9UK32)
RPS6KA6 KD1 (human), sequence (Q9UK32 whole entry, looked up): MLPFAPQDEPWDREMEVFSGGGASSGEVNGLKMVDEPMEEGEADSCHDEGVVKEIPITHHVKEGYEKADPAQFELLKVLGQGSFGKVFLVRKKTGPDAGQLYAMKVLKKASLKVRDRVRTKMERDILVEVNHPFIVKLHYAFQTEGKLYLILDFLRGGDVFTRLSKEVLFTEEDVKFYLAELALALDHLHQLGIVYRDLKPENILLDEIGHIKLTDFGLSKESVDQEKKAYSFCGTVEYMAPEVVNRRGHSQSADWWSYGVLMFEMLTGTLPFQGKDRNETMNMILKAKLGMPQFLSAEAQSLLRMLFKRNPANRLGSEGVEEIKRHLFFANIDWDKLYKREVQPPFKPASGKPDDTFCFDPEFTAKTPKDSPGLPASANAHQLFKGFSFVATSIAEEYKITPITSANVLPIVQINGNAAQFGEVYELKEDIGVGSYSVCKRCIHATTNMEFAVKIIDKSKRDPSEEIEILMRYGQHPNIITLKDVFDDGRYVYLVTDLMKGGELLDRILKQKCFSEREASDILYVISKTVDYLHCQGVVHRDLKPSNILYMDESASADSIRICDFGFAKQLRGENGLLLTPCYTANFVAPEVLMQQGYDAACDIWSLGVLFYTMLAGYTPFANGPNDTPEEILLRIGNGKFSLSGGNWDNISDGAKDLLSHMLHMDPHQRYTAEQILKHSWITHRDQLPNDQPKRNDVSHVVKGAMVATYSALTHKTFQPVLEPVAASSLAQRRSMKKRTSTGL

SIK1 (human) = SIK1 (human) (UniProt P57059)
STK36 (human) = STK36 (human) (UniProt Q9NRP7)
STK4 (human) = STK4 (human) (UniProt Q13043)
WEE1 (human) = WEE1 (human) (UniProt P30291)

`CNc1nc(Nc2ccc(C(=O)N3CCOCC3)cc2OC)ncc1Cl` showed a kinase still bound, per cent of control (AKT2 (human)) of 100%, a kinase still bound, per cent of control (BRSK1 (human)) of 96% and a residual activity (CDK13 (human)) of 89%. It also gave a kinase still bound, per cent of control (EGFR (human)) of 100%, a kinase still bound, per cent of control (EPHA1 (human)) of 100% and a kinase still bound, per cent of control (EPHA6 (human)) of 100%. The kinase still bound, per cent of control (EPHB3 (human)) was 100%, the kinase still bound, per cent of control (EPHB6 (human)) was 100% and the kinase still bound, per cent of control (FER (human)) was 100%. For the same molecule, the kinase still bound, per cent of control (FES (human)) was 100%, the kinase still bound, per cent of control [1] was 100% and the kinase still bound, per cent of control (FLT3 (human)) was 49% and 65%. It also gave a kinase still bound, per cent of control (HCK (human)) of 100%, a kinase still bound, per cent of control (HIPK1 (human)) of 79% and a kinase still bound, per cent of control [2] of 100%. The kinase still bound, per cent of control [3] was 9.4%, the kinase still bound, per cent of control (MAP3K2 (human)) was 100% and the kinase still bound, per cent of control (MAP3K5 (human)) was 100%. For the same molecule, the kinase still bound, per cent of control (MAP4K4 (human)) was 77%, the kinase still bound, per cent of control (MAPK10 (human)) was 42% and the kinase still bound, per cent of control (MAPK11 (human)) was 100%. It also gave a kinase still bound, per cent of control (MST4 (human)) of 100%, a kinase still bound, per cent of control (NUAK1 (human)) of 82% and a kinase still bound, per cent of control (PHKG2 (human)) of 58%. The kinase still bound, per cent of control (PIK3CA (human)) was 100%, the kinase still bound, per cent of control [4] was 85% and the kinase still bound, per cent of control [5] was 85%. It also gave a kinase still bound, per cent of control [6] of 96%, a kinase still bound, per cent of control (PIP4K2C (human)) of 100% and a kinase still bound, per cent of control (PKMYT1 (human)) of 97%. It also gave a kinase still bound, per cent of control (PLK1 (human)) of 100%, a kinase still bound, per cent of control (PRKG2 (human)) of 94% and a kinase still bound, per cent of control (RIOK1 (human)) of 95%. It also gave a kinase still bound, per cent of control (RIPK2 (human)) of 54%, a kinase still bound, per cent of control (RPS6KA6 KD1 (human)) of 100% and a kinase still bound, per cent of control (SIK1 (human)) of 100%. For the same molecule, the kinase still bound, per cent of control (STK36 (human)) was 100%, the kinase still bound, per cent of control (STK4 (human)) was 100% and the kinase still bound, per cent of control (WEE1 (human)) was 78%.
